{"source": "patent US8859628B2", "about": "“Method for preventing, treating and diagnosing disorders of protein aggregation” (priority 2003, dated 2014)", "format_in_all_cases": "in vivo, mouse", "key": {"non-Tg littermates": {"test_system": "non-Tg littermates", "assay": "Morris Water Maze performance of treated non-Tg littermates", "details": "treated vs untreated non-Tg", "protocol": "Behavioral tests—After non-spatial pre-training, mice underwent place discrimination training for 5 days with 4 trials per day. Behavioral data was analyzed using a mixed model of factorial analysis of variance (ANOVA) with drug or genotype and training sessions as repeated measure factors.\n(§1) Behavioral Test—Reversal Study—Mice entered the Morris water maze test with a hidden platform on day one without pretraining. Mice were tested for 3 days with six trials per day. On the fourth day, the platform was removed from the pool and each mouse received one 30-s swim probe trial. On the last day the animals underwent a cue test in order to evaluate swimming ability, eye sight and general cognition. The cue test is composed at the platform being placed in a different quadrant than that used for testing and is tagged with a flag. Animals are allowed 60 s to find the platform. […] Behavioural data was analysed using a mixed model of factorial analysis of variance (ANOVA) with drug or genotype and training sessions as repeated measure factors."}, "TgCRND8 mice [1]": {"test_system": "TgCRND8 mice", "assay": "Morris Water Maze, spatial reference memory version, three-day trial paradigm (treatment/reversal study)", "details": "three-day paradigm", "protocol": "A cohort entered the study at 5 months of age and outcomes were analyzed at 6-months of age. The body weight, coat characteristics and in cage behavior was monitored. All experiments were performed according to the Canadian Council on Animal Care guidelines.\nas §1\nThe cognitive function of TgCRND8 mice was assessed using the spatial reference memory version of the Morris Water Maze using a three day trial paradigm (FIGS. 4-8).\nBehavioural data was analysed using a mixed model of factorial analysis of variance (ANOVA) with drug and genotype as between subject variables and training sessions as within subject variable.\nIn these experiments, the dosage and oral administration of compounds, and the behavioral and neurochemical assays were the same as those employed in the above treatment experiments."}, "TgCRND8 mice [2]": {"test_system": "TgCRND8 mice", "assay": "Gliosis quantitation (GFAP astrocytes, CD68 microglia)", "details": "prevention", "excerpt": "Gliosis Quantitation—Five randomly selected, evenly spaced, sagittal sections were collected from paraformaldehyde-fixed and frozen hemispheres of treated and control mice. Sections were immunolabelled for astrocytes with anti-rat GFAP IgG2a (Dako; diluted 1:50) and for microglia with anti-rat CD68 IgG2b (Dako; 1:50).\nSerial sagittal sections were stained with the astrocytic marker glial fibrillary acidic protein (GFAP) and quantitated for percent brain area covered by astrogliosis."}, "TgCRND8 mice [3]": {"test_system": "TgCRND8 mice", "assay": "Survival census (Kaplan-Meier)", "details": "at 175 days; n=35 per group", "protocol": "Survival Census—The probability of survival was assessed by the Kaplan-Meier technique, computing the probability of survival at every occurrence of death, thus making it suitable for small sample sizes. For the analyses of survival, 35 mice were used for each treatment group. The comparison between treatments was reported using the Tarone-Ware test."}}, "note": "“Also recorded” adds a separate entry of the source."}
{"compound": "O[C@H]1[C@H](O)[C@@H](O)[C@H](O)[C@@H](O)[C@@H]1O", "note": "[Scyllo-Inositol, scyllo-inositol]", "values": [{"measurement": "effect on performance of non-Tg mice", "setting": "non-Tg littermates", "value": "had no effect on the performance of non-Tg mice; also recorded: not effected"}, {"measurement": "cognitive function, treated TgCRND8 mice vs non-Tg littermates (words)", "setting": "TgCRND8 mice [1]; 1 month treatment from 5 months of age", "value": "indistinguishable from non-Tg littermates on all days; also recorded: comparable to scyllo-inositol treated non-Tg littermates"}, {"measurement": "cognitive function, treated TgCRND8 mice vs treated non-Tg littermates", "setting": "TgCRND8 mice [1]; two months of treatment from 5 months of age", "value": "indistinguishable from scyllo-inositol treated non-Tg littermates; also recorded: remained indistinguishable from non-Tg littermates"}, {"measurement": "astrogliosis/gliosis vs untreated", "setting": "TgCRND8 mice [2]; 6 months of age", "value": "significantly decreased amyloid burden and gliosis"}, {"measurement": "astrogliosis, percent brain area covered (GFAP)", "setting": "TgCRND8 mice [2]; 6-months of age", "value": "0.269±0.028", "unit": "%"}, {"measurement": "microglial activation, % brain area", "setting": "TgCRND8 mice [2]; 6 months", "value": "0.20±0.008", "unit": "%"}, {"measurement": "survival", "setting": "TgCRND8 mice [3]", "value": 72, "unit": "%"}]}
